Measured values published in patent publication US6995283B2, “Benzophenones as inhibitors of reverse transcriptase” (priority 2001, dated 2006).

System: HIV-1 (strain IIIIB)
Assay: MT4 cell assay (propidium iodide readout)
Format: cell-based
Settings: Human immunodeficiency virus 1, control and standard, MT4 cells, read-out: expected range of IC50 values
Description: Antiviral HIV activity and compound-induced cytotoxicity were measured in parallel by means of a propidium iodide based procedure in the human T-cell lymphotropic virus transformed cell line MT4. Aliquots of the test compounds were serially diluted in medium (RPMI 1640, 10% fetal calf serum (FCS), and gentamycin) in 96-well plates (Costar 3598) using a Cetus Pro/Pette. Exponentially growing MT4 cells were harvested and centrifuged at 1000 rpm for 10 min in a Jouan centrifuge (model CR 4 12). Cell pellets were resuspended in fresh medium (RPMI 1640, 20% FCS, 20% IL-2, and gentamycin) to a density of 5×10^5 cells/ml. […] The plates were analyzed in an automated assay instrument (Screen Machine, Idexx Laboratories). […] The assay makes use of a propidium iodide dye to estimate the DNA content of each well. • B. For MTS readout, 20 μl CellTiter 96 AQ One Solution reagent (Promega #G3582) was added to each well. At 75 minutes following the addition of MTS reagent, absobance was read at 492 nm using a Tecan Sunrise 96-well plate reader. […]
For each assay plate, the results (relative fluorescence units, rfU, or OD values) of wells containing uninfected cells or infected cells with no compound were averaged, respectively. […] Percent of cells remaining is determined by the following formula: Percent of cells remaining=(compound-treated uninfected cells, rfU, or OD values/untreated uninfected cells)×100. […]

Cc1cn([C@H]2C[C@H](N=[N+]=[N-])[C@@H](CO)O2)c(=O)[nH]c1=O [3′-azido-3′-deoxythymidine]
IC50: 0.04 to 0.12 µM
